Our source for the T/C values is PubChem BioAssay AID180 (DTP/NCI, 2004).

Several values for one entry are separate records, joined by “and”; a condition that tells them apart may be missing. Equal values may be shown once.

For the assay, the system named is BDF1 mice, Adenocarcinoma 755 s.c., tumor weight T/C. Kind of assay: NCI In Vivo Anticancer Drug Screen. Data for tumor model Adenocarcinoma 755 (subcutaneous) in B6D2F1 (BDF1) mice. The following applies: endpoint: mean tumor weight, higher = larger tumour. An outline of the steps: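 Tumor-bearing mice receive test compound while controls get vehicle alone. Antitumor effect is scored from survival or tumor dimensions as a T/C quotient.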

Where [1] appears, read: dose: 6.25 mg/kg/injection, schedule: Q01DX011 (ip), vehicle: methylcellulose (MC).
Where [2] appears, read: dose: 25.0 mg/kg/injection, schedule: Q01DX011 (ip), vehicle: methylcellulose (MC).
The mark [3] stands for this setting: dose: 50.0 mg/kg/injection, schedule: Q01DX011 (ip), vehicle: methylcellulose (MC).
[4] abbreviates: dose: 30.0 mg/kg/injection, schedule: Q01DX011 (ip), vehicle: carboxymethylcellulose (CMC).
[5] abbreviates: dose: 60.0 mg/kg/injection, schedule: Q01DX011 (ip), vehicle: carboxymethylcellulose (CMC).
The mark [6] stands for this setting: dose: 120.0 mg/kg/injection, schedule: Q01DX011 (ip), vehicle: carboxymethylcellulose (CMC).
[7] abbreviates: dose: 240.0 mg/kg/injection, schedule: Q01DX011 (ip), vehicle: carboxymethylcellulose (CMC).

On to `CCn1cnc2c(=S)nc[nH]c21`, for which the T/C (dose: 0.75 mg/kg/injection, schedule: Q01DX011 (ip), vehicle: carboxymethylcellulose (CMC)) is 100 % of control; the T/C (dose: 0.75 mg/kg/injection, schedule: Q#A X022 (ip), vehicle: carboxymethylcellulose (CMC)) was 18 % of control; the T/C (dose: 1.5 mg/kg/injection, schedule: Q01DX006 (iv), vehicle: carboxymethylcellulose (CMC)) is 121 % of control; the T/C (dose: 1.5 mg/kg/injection, schedule: Q01DX011 (im), vehicle: carboxymethylcellulose (CMC)) was 14 % of control; the T/C (dose: 1.5 mg/kg/injection, schedule: Q01DX011 (sc), vehicle: carboxymethylcellulose (CMC)) is 39 % of control; the T/C (dose: 1.5 mg/kg/injection, schedule: Q#A X022 (ip), vehicle: carboxymethylcellulose (CMC)) was 1 % of control. Moreover, the T/C reads like this: (dose: 3.0 mg/kg/injection, schedule: Q01DX006 (iv), vehicle: carboxymethylcellulose (CMC)) 22 % of control; (dose: 3.0 mg/kg/injection, schedule: Q01DX011 (im), vehicle: carboxymethylcellulose (CMC)) 5 % of control; (dose: 3.0 mg/kg/injection, schedule: Q01DX011 (ip), vehicle: carboxymethylcellulose (CMC)) 6 % of control and 19 % of control; (dose: 3.0 mg/kg/injection, schedule: Q01DX011 (sc), vehicle: carboxymethylcellulose (CMC)) 17 % of control; (dose: 3.0 mg/kg/injection, schedule: Q#A X022 (ip), vehicle: carboxymethylcellulose (CMC)) 1 % of control; (dose: 4.5 mg/kg/injection, schedule: Q03DX004 (ip), vehicle: carboxymethylcellulose (CMC)) 24 % of control. Besides, the T/C (dose: 4.6 mg/kg/injection, schedule: Q01DX011 (ip), vehicle: carboxymethylcellulose (CMC)) was 58 % of control; the T/C (dose: 4.62 mg/kg/injection, schedule: Q01DX011 (ip), vehicle: carboxymethylcellulose (CMC)) is 1 % of control; the T/C (dose: 6.0 mg/kg/injection, schedule: Q01DX006 (iv), vehicle: carboxymethylcellulose (CMC)) is 15 % of control; the T/C (dose: 6.0 mg/kg/injection, schedule: Q01DX011 (im), vehicle: carboxymethylcellulose (CMC)) was 1 % of control; the T/C (dose: 6.0 mg/kg/injection, schedule: Q01DX011 (ip), vehicle: carboxymethylcellulose (CMC)) is 4 % of control and 13 % of control; the T/C (dose: 6.0 mg/kg/injection, schedule: Q01DX011 (sc), vehicle: carboxymethylcellulose (CMC)) was 3 % of control. Also, the T/C is, setting by setting: (dose: 6.0 mg/kg/injection, schedule: Q#A X022 (ip), vehicle: carboxymethylcellulose (CMC)) 1 % of control; (dose: 9.0 mg/kg/injection, schedule: Q03DX004 (ip), vehicle: carboxymethylcellulose (CMC)) 23 % of control; (dose: 9.2 mg/kg/injection, schedule: Q01DX011 (ip), vehicle: carboxymethylcellulose (CMC)) 20 % of control; (dose: 9.25 mg/kg/injection, schedule: Q01DX011 (ip), vehicle: carboxymethylcellulose (CMC)) 1 % of control; (dose: 9.25 mg/kg/injection, schedule: Q01DX011 (oral), vehicle: carboxymethylcellulose (CMC)) 1 % of control; (dose: 11.0 mg/kg/injection, schedule: Q07DX002 (ip), vehicle: carboxymethylcellulose (CMC)) 53 % of control. The T/C was 3 % of control (dose: 12.0 mg/kg/injection, schedule: Q01DX006 (iv), vehicle: carboxymethylcellulose (CMC)); 3 % of control (dose: 12.0 mg/kg/injection, schedule: Q01DX011 (ip), vehicle: carboxymethylcellulose (CMC)); 4 % of control (dose: 18.0 mg/kg/injection, schedule: Q03DX004 (ip), vehicle: carboxymethylcellulose (CMC)); 6 % of control (dose: 18.5 mg/kg/injection, schedule: Q01DX011 (ip), vehicle: carboxymethylcellulose (CMC)); 33 % of control (dose: 22.0 mg/kg/injection, schedule: Q07DX002 (ip), vehicle: carboxymethylcellulose (CMC)); 2 % of control (dose: 25.0 mg/kg/injection, schedule: Q01DX006 (iv), vehicle: carboxymethylcellulose (CMC)). The T/C is 1 % of control (dose: 25.0 mg/kg/injection, schedule: Q01DX011 (ip), vehicle: carboxymethylcellulose (CMC)); 1 % of control (dose: 25.0 mg/kg/injection, schedule: Q01DX011 (sc), vehicle: carboxymethylcellulose (CMC)); 2 % of control (dose: 37.0 mg/kg/injection, schedule: Q01DX011 (ip), vehicle: carboxymethylcellulose (CMC)); 1 % of control (dose: 37.0 mg/kg/injection, schedule: Q03DX004 (ip), vehicle: carboxymethylcellulose (CMC)); 8 % of control (dose: 44.0 mg/kg/injection, schedule: Q07DX002 (ip), vehicle: carboxymethylcellulose (CMC)); 1 % of control (dose: 75.0 mg/kg/injection, schedule: Q03DX004 (ip), vehicle: carboxymethylcellulose (CMC)). The T/C was 4 % of control and 8 % of control (dose: 87.0 mg/kg/injection, schedule: Q07DX002 (ip), vehicle: carboxymethylcellulose (CMC)); 2 % of control (dose: 350.0 mg/kg/injection, schedule: Q07DX002 (ip), vehicle: carboxymethylcellulose (CMC)).
Regarding `Nc1nc(N)c(N=O)c(Nc2ccc(I)cc2)n1`, the T/C is 70 % of control (dose: 0.5 mg/kg/injection, schedule: Q01DX011 (ip), vehicle: carboxymethylcellulose (CMC)); 79 % of control and 80 % of control (dose: 1.0 mg/kg/injection, schedule: Q01DX011 (ip), vehicle: carboxymethylcellulose (CMC)); 62 % of control (dose: 2.0 mg/kg/injection, schedule: Q01DX011 (ip), vehicle: carboxymethylcellulose (CMC)); 34 % of control and 54 % of control and 59 % of control (dose: 8.0 mg/kg/injection, schedule: Q01DX011 (ip), vehicle: carboxymethylcellulose (CMC)); 25 % of control and 28 % of control and 40 % of control (dose: 32.0 mg/kg/injection, schedule: Q01DX011 (ip), vehicle: carboxymethylcellulose (CMC)); 17 % of control (dose: 64.0 mg/kg/injection, schedule: Q01DX011 (ip), vehicle: carboxymethylcellulose (CMC)). For the same molecule, for the setting “dose: 128.0 mg/kg/injection, schedule: Q01DX011 (ip), vehicle: carboxymethylcellulose (CMC)”, the T/C was 10 % of control.
Take `Cc1ccc(C(=O)[O][Hg][CH2]C2COC([CH2][Hg][O]C(=O)c3ccc(C)cc3)CO2)cc1` (configuration not stated): the T/C by setting is: under setting [1], 101 % of control; under setting [2], 61 % of control; under setting [3], 38 % of control.
Take `C=CCSc1nc(N)nc2nc[nH]c12`: the T/C (dose: 2.0 mg/kg/injection, schedule: Q01DX011 (ip), vehicle: methylcellulose (MC)) is 50 % of control; the T/C (dose: 4.0 mg/kg/injection, schedule: Q01DX011 (ip), vehicle: methylcellulose (MC)) is 41 % of control; the T/C (dose: 16.0 mg/kg/injection, schedule: Q01DX011 (ip), vehicle: methylcellulose (MC)) is 3 % of control.
On to `Cc1ccc(CNc2ncnc3[nH]ncc23)cc1C`, for which the T/C was 95 % of control under setting [2]; 72 % of control under setting [3]; 64 % of control (dose: 100.0 mg/kg/injection, schedule: Q01DX011 (ip), vehicle: methylcellulose (MC)); 68 % of control (dose: 300.0 mg/kg/injection, schedule: Q01DX011 (ip), vehicle: methylcellulose (MC)).
As for `CCCCNc1ncnc2c1cnn2C1CCCCO1` (configuration not stated), the T/C runs as follows: (dose: 3.12 mg/kg/injection, schedule: Q01DX011 (ip), vehicle: methylcellulose (MC)) 39 % of control; under setting [1], 44 % of control; (dose: 12.5 mg/kg/injection, schedule: Q01DX011 (ip), vehicle: methylcellulose (MC)) 20 % of control; under setting [2], 12 % of control.
`Cn1cnc(=N)c2[nH]cnc21`: the T/C runs as follows: under setting [4], 97 % of control; under setting [5], 93 % of control; under setting [6], 73 % of control; under setting [7], 93 % of control.
In the case of `CC(=O)[C@H]1CC[C@H]2[C@@H]3C[C@H](C)C4=CC(=O)CC[C@]4(C)[C@H]3C(=O)C[C@]12C`, the T/C runs as follows: (dose: 25.0 mg/kg/injection, schedule: Q01DX011 (sc), vehicle: steriod suspending solution) 65 % of control; (dose: 50.0 mg/kg/injection, schedule: Q01DX011 (sc), vehicle: steriod suspending solution) 78 % of control; (dose: 200.0 mg/kg/injection, schedule: Q01DX011 (sc), vehicle: steriod suspending solution) 35 % of control and 43 % of control; (dose: 400.0 mg/kg/injection, schedule: Q01DX011 (sc), vehicle: steriod suspending solution) 21 % of control; (dose: 800.0 mg/kg/injection, schedule: Q01DX011 (sc), vehicle: steriod suspending solution) 30 % of control.
Turning to `O=c1[nH]c(Br)nc2nc[nH]c12`, the T/C by setting is: under setting [4], 99 % of control; under setting [5], 98 % of control; under setting [6], 81 % of control; under setting [7], 92 % of control.
